Legend:
Format in all cases: cell-based
[1] = system: PPARgamma mRNA; experiment: PPARgamma mRNA expression during human neutrophil attachment to culture dishes; conditions: data taken at 1 and 4 hours; human neutrophils (FIG. 1A)
[2] = system: MMP-9 release; experiment: Inhibition of MMP-9 release from human neutrophils (human MMP-9 ELISA); conditions: Neutrophil, RPMI 1640 plus 1% BSA, 4 hours, 4 individuals, 4-parameter logistic curve fit
Protocol: FIG. 2: Inhibition of MMP-9 release.by Compound (I)
Neutrophils were isolated by countercurrent centrifugal elutriation to a purity of at least 98% and were maintained in RPMI 1640 plus 1% BSA. Cells were cultured in 48 well plates and attached to the wells within 1 hour of plating. Compound (I) (referred to as“BRL49653” in FIG. 2) was included from the beginning of the experiment. After 4 hours the media was removed and a human MMP-9 ELISA assay (Amersham) was performed. Data (from 4 different individuals) were not suitable for pooling directly, so for the purposes of the figure they were normalised to percentage of no compound control. Asterisks denote p<0.05 using a paired Student's t-test performed on the raw data prior to normalisation.

[3] = system: Gelatinase B mRNA; experiment: Gelatinase B mRNA expression in attached human neutrophils; conditions: 1 μM of compound; 4 hours after neutrophil attachment; human neutrophils (FIG. 1B)
Protocol: (FIG. 1B): That the increase in Gelatinase B mRNA expression observed 4 hours after neutrophil attachment was reduced by treatment with 1 μM of Compound (I). Time zero (T0) refers to expression in naive human neutrophils prior to attachment.

Row | Compound | PPARgamma mRNA during human neutrophil attachment [1] | IC50 [2] [nM] | increase in Gelatinase B mRNA expression after neutrophil attachment [3]
1 | GM-CSF: GM-CSF, treatment that further enhanced PPARgamma mRNA in attached human neutrophils | further enhanced |  | 
2 | CN(CCOc1ccc(CC2SC(=O)NC2=O)cc1)c1ccccn1 (stereo not drawn) [Compound (I), 5-[4-[2-(N-methyl-N-(2-pyridyl)amino)ethoxy]benzyl]thiazolidine-2,4-dione] |  | 10.6 | reduced
